Reference: patent publication US6737383B1, “Herbicidal oxadiazolidines” (priority 1999, dated 2004)

Key:
giant foxtail = test: Test B pre/postemergence giant foxtail; type: in vivo, Setaria faberii
Procedure, shortened: (§1)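 Response is a visual 0-to-10 score relative to untreated plants, where 0 means no effect and 10 means complete control, taken twelve to sixteen days after application. Treatments went onto soil at planting and onto foliage of 1- to 4-leaf plants, using a surfactant-containing non-phytotoxic solvent.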

rape = test: Test B pre/postemergence rape; type: in vivo, Brassica napus
Procedure, shortened: as §1

velvetleaf = test: Test B pre/postemergence velvetleaf; type: in vivo, Abutilon theophrasti
Procedure, shortened: as §1

smallflower flatsedge = test: Test B flood test smallflower flatsedge; type: in vivo, Cyperus difformis
Procedure, shortened: (§2)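 Flood test on plants grown to the 2-leaf stage; treated plants kept in greenhouse twelve to sixteen days, then visually rated against controls on a 0 (no effect) to 10 (complete control) scale.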

bedstraw = test: Test B pre/postemergence bedstraw; type: in vivo, Galium aparine; conditions: for Bedstraw plant response rating: Postemergence
Procedure, shortened: as §1

rice = test: Test B flood test rice; type: in vivo, Oryza sativa
Procedure, shortened: as §2

bamyardgrass = test: Test B flood test barnyardgrass; type: in vivo, Echinochloa crus-galli
Procedure, shortened: as §2

surinam grass = test: Test B pre/postemergence surinam grass; type: in vivo, Brachiaria decumbens
Procedure, shortened: as §1

corn = test: Test B pre/postemergence corn; type: in vivo, Zea mays
Procedure, shortened: as §1

wheat = test: Test B pre/postemergence wheat; type: in vivo, Triticum aestivum
Procedure, shortened: as §1

purple nutsedge = test: Test B pre/postemergence purple nutsedge; type: in vivo, Cyperus rotundus
Procedure, shortened: as §1

duck salad = test: Test B flood test duck salad; type: in vivo, Heteranthera limosa
Procedure, shortened: as §2

crabgrass = test: Test B pre/postemergence crabgrass; type: in vivo, Digitaria sanguinalis
Procedure, shortened: as §1

wild oat = test: Test B pre/postemergence wild oat; type: in vivo, Avena fatua
Procedure, shortened: as §1

blackgrass = test: Test B pre/postemergence blackgrass; type: in vivo, Alopecurus myosuroides
Procedure, shortened: as §1

sugar beet = test: Test B pre/postemergence sugar beet; type: in vivo, Beta vulgaris
Procedure, shortened: as §1

[1] = Preemergence, Rate 62 g/ha, scale of 0 to 10 where 0 is no effect and 10 is complete control
[2] = Rate 62 g/ha, Postemergence, scale 0 to 10 (0 no effect, 10 complete control)
[3] = Rate 125 g/ha, Postemergence, scale of 0 to 10 where 0 is no effect and 10 is complete control
[4] = Rate 250 g/ha, Postemergence, scale of 0 to 10 where 0 is no effect and 10 is complete control
[5] = Preemergence, Rate 250 g/ha, scale of 0 to 10 where 0 is no effect and 10 is complete control
[6] = Preemergence, Rate 500 g/ha, scale of 0 to 10 where 0 is no effect and 10 is complete control
[7] = Rate 62 g/ha, headed Pre-emergence (flood test species), scale 0 to 10 (0 no effect, 10 complete control)
[8] = Rate 125 g/ha, Pre-emergence, flood test species, scale 0 to 10 where 0 is no effect and 10 is complete control
[9] = Rate 250 g/ha, Pre-emergence, flood-test species, scale 0 to 10, 0 is no effect, 10 is complete control
[10] = Rate 500 g/ha, Pre-emergence, flood test species, scale 0 to 10 (0 no effect, 10 complete control)
[11] = Rate 500 g/ha, Postemergence, scale 0 to 10, 0 no effect, 10 complete control

CCN(C(=O)n1oc(=O)n(C2CC2)c1=O)C1CCCCC1 [Compound 298]
0: Giant foxtail plant response rating (giant foxtail; [1]) | Giant foxtail plant response rating (0 to 10 scale) (giant foxtail; Preemergence, Rate 125 g/ha) | Giant foxtail plant response rating (giant foxtail; [2]) | Giant foxtail plant response rating (giant foxtail; [3]) | Plant response rating, Giant foxtail (giant foxtail; [4]) | Rape plant response rating (rape; [1]) | Rape plant response rating (0 to 10 scale) (rape; Preemergence, Rate 125 g/ha) | Rape plant response rating (rape; [5]) | Plant response rating, Rape (rape; [6]) | Rape plant response rating (rape; [2]) | Rape plant response rating (rape; [3]) | Plant response rating, Rape (rape; [4]) | Velvetleaf plant response rating (velvetleaf; [1]) | Velvetleaf plant response rating (0 to 10 scale) (velvetleaf; Preemergence, Rate 125 g/ha) | Velvetleaf plant response rating (velvetleaf; [5]) | Plant response rating, Velvetleaf (velvetleaf; [6]) | Velvetleaf plant response rating (velvetleaf; [2]) | Velvetleaf plant response rating (velvetleaf; [3]) | Plant response rating, Velvetleaf (velvetleaf; [4]) | S. Flatsedge plant response rating (smallflower flatsedge; [7]) | S. Flatsedge plant response rating (smallflower flatsedge; [8]) | S. Flatsedge plant response rating (smallflower flatsedge; [9]) | S. Flatsedge plant response rating (smallflower flatsedge; [10]) | Bedstraw plant response rating (0 to 10 scale) (bedstraw; Preemergence, Rate 125 g/ha) | Bedstraw plant response rating (bedstraw; Rate 62 g/ha, scale 0 to 10 (0 no effect, 10 complete control)) | Bedstraw plant response rating (bedstraw; Rate 125 g/ha, scale of 0 to 10 where 0 is no effect and 10 is complete control) | Rice plant response rating (rice; [7]) | Rice plant response rating (rice; [8]) | Rice plant response rating (rice; [9]) | Rice plant response rating (rice; [10]) | Barnyardgrass plant response rating (bamyardgrass; [7]) | Barnyardgrass plant response rating (bamyardgrass; [8]) | Barnyardgrass plant response rating (bamyardgrass; [9]) | Barnyardgrass plant response rating (bamyardgrass; [10]) | B. signalgrass plant response rating (surinam grass; [1]) | B. signalgrass plant response rating (0 to 10 scale, 0 is no effect, 10 is complete control) (surinam grass; Preemergence, Rate 125 g/ha) | B. signalgrass plant response rating (surinam grass; [5]) | Plant response rating, B. signalgrass (surinam grass; [6]) | B. signalgrass plant response rating (surinam grass; [2]) | B. signalgrass plant response rating (surinam grass; [3]) | Plant response rating, B. signalgrass (surinam grass; [4]) | B. signalgrass plant response rating (surinam grass; [11]) | Corn plant response rating (corn; [1]) | Corn plant response rating (0 to 10 scale) (corn; Preemergence, Rate 125 g/ha) | Corn plant response rating (corn; [5]) | Plant response rating, Corn (corn; [6]) | Corn plant response rating (corn; [2]) | Corn plant response rating (corn; [3]) | Plant response rating, Corn (corn; [4]) | Corn plant response rating (corn; [11]) | Wheat plant response rating (wheat; [1]) | Wheat plant response rating (0 to 10 scale) (wheat; Preemergence, Rate 125 g/ha) | Wheat plant response rating (wheat; [5]) | Plant response rating, Wheat (wheat; [6]) | Wheat plant response rating (wheat; [2]) | Wheat plant response rating (wheat; [3]) | Plant response rating, Wheat (wheat; [4]) | Nutsedge plant response rating (purple nutsedge; [1]) | Nutsedge plant response rating (0 to 10 scale) (purple nutsedge; Preemergence, Rate 125 g/ha) | Nutsedge plant response rating (purple nutsedge; [5]) | Plant response rating, Nutsedge (purple nutsedge; [6]) | Nutsedge plant response rating (purple nutsedge; [2]) | Nutsedge plant response rating (purple nutsedge; [3]) | Plant response rating, Nutsedge (purple nutsedge; [4]) | Ducksalad plant response rating (duck salad; [7]) | Ducksalad plant response rating (duck salad; [8]) | Ducksalad plant response rating (duck salad; [9]) | Ducksalad plant response rating (duck salad; [10]) | Crabgrass plant response rating (crabgrass; [1]) | Crabgrass plant response rating (0 to 10 scale) (crabgrass; Preemergence, Rate 125 g/ha) | Crabgrass plant response rating (crabgrass; [5]) | Plant response rating, Crabgrass (crabgrass; [6]) | Crabgrass plant response rating (crabgrass; [2]) | Crabgrass plant response rating (crabgrass; [3]) | Plant response rating, Crabgrass (crabgrass; [4]) | Wild oats plant response rating (wild oat; [1]) | Wild oats plant response rating (0 to 10 scale) (wild oat; Preemergence, Rate 125 g/ha) | Wild oats plant response rating (wild oat; [5]) | Plant response rating, Wild oats (wild oat; [6]) | Wild oats plant response rating (wild oat; [2]) | Wild oats plant response rating (wild oat; [3]) | Plant response rating, Wild oats (wild oat; [4]) | Blackgrass plant response rating (blackgrass; [1]) | Blackgrass plant response rating (blackgrass; [5]) | Plant response rating, Blackgrass (blackgrass; [6]) | Blackgrass plant response rating (blackgrass; [2]) | Blackgrass plant response rating (blackgrass; [3]) | Plant response rating, Blackgrass (blackgrass; [4]) | Blackgrass plant response rating (blackgrass; [11]) | Sugarbeets plant response rating (sugar beet; [1]) | Sugarbeets plant response rating (0 to 10 scale) (sugar beet; Preemergence, Rate 125 g/ha) | Sugarbeets plant response rating (sugar beet; [5]) | Plant response rating, Sugarbeets (sugar beet; [6]) | Sugarbeets plant response rating (sugar beet; [2]) | Sugarbeets plant response rating (sugar beet; [3]) | Plant response rating, Sugarbeets (sugar beet; [4])
